This is an account of results in patent publication US20240417406A1, “NITROGEN-CONTAINING TRICYCLIC COMPOUND AND PHARMACEUTICAL USE THEREOF” (JAPAN TOBACCO INC., priority 2021, published 2024).

In general, IC50 refers to the concentration at which inhibition is half-maximal.

This test deals with human PDHK2 (hPDHK2) (Homo sapiens (Human), UniProt Q15119). The experiment in a line: Inhibitory action of PDHK2 activity (PDH/hPDHK2 complex, residual PDH activity by NADH absorbance at 340 nm). The test is classed as biochemical. The settings on record: FLAG-tagged recombinant hPDHK2 with porcine heart PDH complex; PDHK reaction 45 min at room temperature. A digest of the protocol: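 N-FLAG hPDHK2 from E. coli (0.5 μg/mL) preincubated overnight at 4 °C with porcine heart PDH complex (0.025 U/mL), pH 7.0 MOPS buffer. Pyruvate, CoA, NAD and TPP substrates added, 90 min at room temperature. Residual PDH activity from NADH A340 change, corrected for compound effect on PDH alone; IC50 from inhibition %.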
For `C[C@H]1Cn2nc(OCF)cc2-c2onc([C@@](C)(O)C(F)(F)F)c21` (racemic) [Example 44], the IC50 stood at 18.3 nM.

For `COCCOc1cc2n(n1)C[C@H](C)n1c-2cnc1[C@@](C)(O)C(F)(F)F` [Example 68], the IC50 came to 15.2 nM.

Consider `C[C@H]1Cn2nc(OCCF)cc2-c2cnc([C@@](C)(O)C(F)(F)F)n21` [Example 66], for which the concentration for half-maximal inhibition (IC50) stood at 13.7 nM.

`C[C@H]1Cn2nc(C34CC(C#N)(C3)C4)cc2-c2cnnc([C@@](C)(O)C(F)(F)F)c21` (racemic) [Example 104, 3-[(R)-5-methyl-4-((R)-1,1,1-trifluoro-2-hydroxypropan-2-yl)-5,6-dihydropyrazolo[1′,5′:1,2]pyrido[3,4-d]pyridazin-9-yl]bicyclo[1.1.1]pentane-1-carbonitrile and 3-[(S)-5-methyl-4-((S)-1,1,1-trifluoro-2-hydroxypropan-2-yl)-5,6-dihydropyrazolo[1′,5′:1,2]pyrido[3,4-d]pyridazin-9-yl]bicyclo[1.1.1]pentane-1-carbonitrile]: the IC50 turned out to be 36.9 nM.

For `C[C@H]1Cn2c(nnc2C23CC(C(F)(F)F)(C2)C3)-c2onc([C@@](C)(O)C(F)(F)F)c21` [Example 9], the IC50 worked out at 9.5 nM.

For the compound `C[C@H]1Cn2c(nnc2C(F)F)-c2onc([C@@](C)(O)C(F)(F)F)c21` [Example 25], the IC50 came to 15.7 nM.

Regarding `C[C@H]1Cc2nn(CC(C)(C)O)cc2-c2onc([C@@](C)(O)C(F)(F)F)c21` (racemic) [Example 38], the half-inhibitory concentration (IC50) was 25.2 nM.

For `C[C@H]1Cn2nc(C3CCOCC3)cc2-c2onc([C@@](C)(O)C(F)(F)F)c21` (racemic) [Example 52], the IC50 is 15 nM.

Regarding `C[C@H]1Cc2c(cnn2C)-c2onc([C@@](C)(O)C(F)(F)F)c21` (racemic) [Example 24], the half-inhibitory concentration (IC50) is 25.4 nM.

Consider `C[C@H]1Cc2[nH]ncc2-c2onc([C@@](C)(O)C(F)(F)F)c21` [Example 28, (R)-1,1,1-trifluoro-2-((S)-4-methyl-5,6-dihydro-4H-isoxazolo[5,4-e]indazol-3-yl)propan-2-ol], for which the IC50 came to 8.5 nM.

As to `C[C@H]1Cn2nc(OCc3ccccc3)cc2-c2onc([C@@](C)(O)C(F)(F)F)c21` (racemic) [Example 15], the IC50 was 10.9 nM.

Turning to `C[C@H]1Cc2c(cnn2C(F)F)-c2onc([C@@](C)(O)C(F)(F)F)c21` (racemic) [Example 21], the IC50 is 19.8 nM.

On to `C[C@H]1Cn2nc(C34CCC(CO)(CC3)CC4)cc2-c2cnc([C@@](C)(O)C(F)(F)F)n21` [Example 69], for which the IC50 was 18 nM.
